Results taken from patent US7824912B2, “Methods for ex vivo propagation of adult hepatic stem cells” (Massachusetts Institute of Technology, priority 2005, dated 2010).

Legend:
somatic liver stem cells = assay: Derivation of phHASC strains from liver cells by the modified SACK method; type: cell-based, human
Protocol: Cells: Human liver cells are tested for blood borne agents, the non-parenchymal (NPC) fraction is place on ice for up to 24 hours and then centrifuged at 800×g for 5 minutes at 4° C. The resulting cell pellet is re-suspended in 50 ml-100 ml cold Dulbecco's Modified Eagle medium (DMEM-high glucose) supplemented with 1% dialyzed fetal bovine serum (DFBS). Based on the count of trypan blue-excluding viable cells, 5×10^6 viable cells are plated in 10-cm diameter cell culture dishes. Initiation Culture Medium: […] Maintenance Culture Medium: DMEM-high glucose supplemented with 10% DFBS, 20 ng/ml recombinant human epidermal growth factor, 0.5 ng/ml transforming growth factor β1, and the respective purine compound at the concentration used in the Initiation Culture Medium. Although initial efforts to derive cell strains by limiting dilution cloning were unsuccessful, we modified the approach by initially culturing primary liver cell preparations at confluent cell densities under conditions of reduced serum and supplementation with SACK agents, TGF-β and EGF (See Table 1). SACK-derived rat adult stem cell strains resist hepatocytic differentiation by TGF-β and EGF. Whereas their non-stem cell progeny undergo cell cycle withdrawal and hepatic differentiation in response to serum reduction and exposure to TGF-β and EGF, in the presence of Xs, the stem cells continue to cycle actively. The first four livers were invested in establishing a modified SACK procedure. Unlike the original procedure developed for derivation of rat hepatic adult stem cells (Lee et al., 2003), the new method is not based on limiting dilution cloning. Instead, the liver cells are initially cultured at confluent cell densities in low serum medium (1% dialyzed fetal bovine serum [dFBS]) supplemented with the growth factors TGFβ and EGF. In addition, higher concentrations of SACK agents are used, e.g. 1.5 mM Xs. These conditions suppress the growth of differentiating liver cells (including troublesome fibroblasts and stellate cells), while promoting the expansion of […]. After initial outgrowth of […] strains, serum supplementation is increased to 10% dFBS for routine maintenance. Table 1 summarizes results obtained when the newly adapted SACK procedure was applied to cell specimens from two livers from […] donors. All strains were cryo-preserved at early passages using a freezing procedure that minimizes the time that cells spend super-cooled before ice formation (Karlsson et al., 1996). This precaution provides a high level of viability (70%-80%) upon thawing the cells.

phHASC subclone C2 = assay: Colcemid arrest assay (CAA) of non-cycling cell fraction; type: cell-based, human; conditions: subclone C2, +Xs compared to -Xs
Protocol: FIGS. 12A and 12B show CAA analyses of a Xs-derived sub-clone (Parental strain see FIG. 10). […] The new assay is called the colcemid arrest assay (CAA). We used our engineered cell lines with experimentally controlled asymmetric self-renewal to develop it (Rambhatla et al., 2001; FIG. 9). Cell cultures are treated with the microtubule antagonist colcemid for a complete generation period. Conventional methods for propidium iodine staining and standard flow cytometry are used to quantify the DNA content of cells after colcemid treatment. In the presence of colcemid, cycling cells arrest in mitosis of the cell cycle with 4N DNA content. After one generation period, all previously cycling cells contain this amount of DNA. Therefore, for cell cultures with only symmetrically cycling cells, essentially the entire culture arrests in mitosis with 4N DNA (compare FIGS. 9A and 9C). In contrast, the DNA content of non-cycling cells is unchanged. […] Thus, CAA can identify and quantify the cycling stem cell fraction and the arrested differentiated progeny fraction of an asymmetrically self-renewing adult stem cell population (compare FIGS. 9B and 9D). […] In pilot studies with engineered cell lines, the CAA-determined rates were in good agreement with expectations based on previous lineage-specific cell kinetics assays. […]

CYP3A4 = system: CYP3A4
Protocol: FIG. 14A, cells were grown in a collagen-Matrigel™ sandwich with serum supplemented medium. FIG. 14B, cells were grown under routine culture conditions, but with serum-free medium. Data are the mean of replicate assays (n=2). Error bars indicate the standard deviation of replicate assays.
We undertook an evaluation of CYP3A4 activity in phHASC strains using a commercially available luciferase-based luminescent assay. The p450-GLO™ CYP3A4 luminescent assay was supplied by Promega Corp. (Madison, Wis.). The assay is based on a caged luciferin substrate that is specifically uncaged by the enzymatic action of CYP3A4. Once uncaged, luciferin is available for luciferase action and light production.
We evaluated the effect of rifampicin under two different conditions with two different concentrations of the solvent carrier DMSO, 0.03% and 5%. Parental phHASCs were evaluated after growth in a collagen-Matrigel™ sandwich, as recommended by the supplier of the p450-GLO™ CYP3A4 luminescent assay (FIG. 14A) or under standard culture conditions with serum-free medium (FIG. 14B).

SMILES	Number of Strains (somatic liver stem cells; liver, 2 trials per SACK agent)	Number of Strains (somatic liver stem cells; liver, 3 trials per SACK agent)	reliability and effectiveness for developing strains (somatic liver stem cells; compared among Hx, Xn and Xs)	Sub-clones (somatic liver stem cells; liver)	non-cycling fraction (phHASC subclone C2)	effect on basal level of CYP3A4 activity (CYP3A4)	increase in CYP3A4 activity (CYP3A4; human, 48 h, 5 %) [fold]
O=c1[nH]c(=O)c2[nH]cnc2[nH]1 [Xn, xanthine]	1	3	–	–	–	–	–
O=c1[nH]c(=O)c2ncn([C@@H]3O[C@H](CO)[C@@H](O)[C@H]3O)c2[nH]1 [Xs, xanthosine]	2	1	most reliable and effective	9	reduced	–	–
C[S+](C)[O-] [DMSO, dimethylsulfoxide]	–	–	–	–	–	did not affect	6.5
O=c1[nH]cnc2nc[nH]c12 [Hx, hypoxanthine]	2	3	–	–	–	–	–
